# System: CoA-IT
# Test: Assay (b): CoA-IT activity in U937 cell microsomes
# Assay type: biochemical, human
# Conditions: generally at 50 μM or less
# From the text: Assay (b): CoA-IT Activity
# The following is a method to measure CoA-IT activity and the effects of compounds on CoA-IT activity. The assay is based upon mixing cellular material containing CoA-IT activity with a stable lyso phospholipid such as […] and measuring the production of phospholipid product such as […] occurring in the absence of added CoA or CoA-fatty acids.
# Any inflammatory cell that contains high levels of CoA-IT activity can be used, such as neutrophils, macrophages or cell lines such as U937 cells. […] Cells were grown without differentiation (basal state) by any agent, such as dimethyl sulfoxide. As used herein, "inflammatory cells" include, but are not limited to neutrophils, macrophages, monocytes, lymphocytes, eosinophils, basophils, and mast cells.
# Microsomes were prepared using standard techniques. In this case, cells were washed with a buffer of 250 mM sucrose, 10 mM Tris, 1 mM EGTA, 1 mM MgCl2, pH 7.4 and ruptured by N2 cavitation (750 psi, 10 minutes). The ruptured cells were centrifuged 1000× g, 5 minutes. The resulting supernatant was centrifuged at 20,000×g,~20 minutes. Microsomes were prepared from this supernatant by centrifugation at 100,000× g, 60 minutes. The resulting pellet was washed once with assay buffer (150 mM NaCl, 10 mM Na2 KPO4, 1 mM EGTA, pH 7.4), recentrifuged and the pellet resuspended in assay buffer (4-20 mg protein/ml) and was stored at -80° C. until assayed.
# CoA-IT activity was measured in 1.5 ml centrifuge tubes in a total volume of 100 ul. Microsomes were diluted in assay buffer to the desired protein concentration (6-20 ug/tube). The reaction was initiated by addition of [3H] 1-alkyl-2-lyso-sn-glycero-3-phosphocholine (GPC)(~0.1 uCi/tube) and 1 μM final cold 1-alkyl-2-lyso-GPC in assay buffer with 0.25 mg/ml fatty acid-poor bovine serumalbumin (BSA) (Calbiochem, La Jolla, Calif.). [3H]1-alkyl-2-lyso-GPC, approximately 50 Ci/mmol, was from NEN-Dupont (Boston, Mass.) and cold 1-alkyl-2-lyso-GPC was from Biomol (Plymouth Meeting, Penn.). Microsomes were pretreated with desired agents for the desired time (10 minutes) before the addition of [3H]1-alkyl-2-lyso-GPC. The reaction was run for the desired time (10 minutes) at 37° C. The reaction was stopped and the lipids extracted by addition of 100 ul of chloroform:methanol (1:2, v/v) followed by 100 ul of chloroform and 100 ul of 1M KCI. The samples were vortexed and centrifuged at high speed in a microfuge for 2-3 minutes. An aliquot of the chloroform-extracted materials were separated, usually by TLC in chloroform/methanol/acetic acid/water (50:25:8:4, v/v), visualized by radioscanning (Bioscan) and the product, [3H] 1-alkyl-2-acyl-GPC, was scraped and quantified by liquid scintillation spectroscopy. […] Other methods can be used to separate substrate from product, including but not limited to column chromatography, affinity chromatography and post reaction derivitization.
row,inhibition of CoA-IT activity in the microsomal CoA-IT assay,SMILES
1,inhibit CoA-IT activity,"O=C(Nc1cc(C(F)(F)F)cc(C(F)(F)F)c1)Nc1cc(C(F)(F)F)ccc1Oc1ccccc1C(=O)O [Example 7, 2-[2-[3-[3,5-Bis(trifluoromethyl)phenyl]ureido]-4-trifluoromethylphenoxy]benzoic acid]"
2,inhibit CoA-IT activity,"O=C(Nc1cc(C(F)(F)F)cc(C(F)(F)F)c1)Nc1ccccc1Oc1ccccc1C(=O)O [Example 2, 2-[2-[3-[3,5-Bis (trifluoromethyl)phenyl]ureido]phenoxy]benzoic acid]"

# Reference: patent US5447957A, “Anti-inflammatory compounds” (SmithKline Beecham Corp., priority 1994, dated 1995)
